Experimental data as given in ChEMBL document CHEMBL5038625, “Application of the dual-tail approach for the design and synthesis of novel Thiopyrimidine-Benzenesulfonamide hybrids as selective carbonic anhydrase inhibitors” (Eur J Med Chem, 2022).

What was measured:
RPMI-8226 = assay: Antiproliferative activity against human RPMI-8226 cells assessed as cell growth inhibition at 10 uM incubated for 24 hrs by sulforhodamine B assay; assay type: functional; conditions: read-out: GI
MDA-MB-231 [1] = assay: Antiproliferative activity against human MDA-MB-231 cells assessed as cell growth inhibition at 10 uM incubated for 24 hrs by sulforhodamine B assay; assay type: functional; conditions: read-out: GI
U-251 = assay: Antiproliferative activity against human U-251 cells assessed as cell growth inhibition at 10 uM incubated for 24 hrs by sulforhodamine B assay; assay type: functional; conditions: read-out: GI
SNB-19 = assay: Antiproliferative activity against human SNB-19 cells assessed as cell growth inhibition at 10 uM incubated for 24 hrs by sulforhodamine B assay; assay type: functional; conditions: read-out: GI
RXF 393 = assay: Antiproliferative activity against human RXF 393 cells assessed as cell growth inhibition at 10 uM incubated for 24 hrs by sulforhodamine B assay; assay type: functional; conditions: read-out: GI
HOP-62 = assay: Antiproliferative activity against human HOP-62 cells assessed as cell growth inhibition at 10 uM incubated for 24 hrs by sulforhodamine B assay; assay type: functional; conditions: read-out: GI
DU-145 = assay: Antiproliferative activity against human DU-145 cells assessed as cell growth inhibition at 10 uM incubated for 24 hrs by sulforhodamine B assay; assay type: functional; conditions: read-out: GI
CAKI-1 = assay: Antiproliferative activity against human CAKI-1 cells assessed as cell growth inhibition at 10 uM incubated for 24 hrs by sulforhodamine B assay; assay type: functional; conditions: read-out: GI
OVCAR-8 = assay: Antiproliferative activity against human OVCAR-8 cells assessed as cell growth inhibition at 10 uM incubated for 24 hrs by sulforhodamine B assay; assay type: functional; conditions: read-out: GI
ACHN = assay: Antiproliferative activity against human ACHN cells assessed as cell growth inhibition at 10 uM incubated for 24 hrs by sulforhodamine B assay; assay type: functional; conditions: read-out: GI
MDA-MB-231 [2] = assay: Antiproliferative activity against human MDA-MB-231 cells assessed as reduction in cell viability incubated for 24 hrs by sulforhodamine B assay; assay type: functional, cell-based; conditions: MDA-MB-231, 24 h
SNB-75 = assay: Antiproliferative activity against human SNB-75 cells assessed as cell growth inhibition at 10 uM incubated for 24 hrs by sulforhodamine B assay; assay type: functional; conditions: read-out: GI
A549 = assay: Antiproliferative activity against human A549 cells assessed as cell growth inhibition at 10 uM incubated for 24 hrs by sulforhodamine B assay; assay type: functional; conditions: read-out: GI
IGROV-1 = assay: Antiproliferative activity against human IGROV-1 cells assessed as cell growth inhibition at 10 uM incubated for 24 hrs by sulforhodamine B assay; assay type: functional; conditions: read-out: GI
KM12 = assay: Antiproliferative activity against human KM12 cells assessed as cell growth inhibition at 10 uM incubated for 24 hrs by sulforhodamine B assay; assay type: functional; conditions: read-out: GI
PC-3 = assay: Antiproliferative activity against human PC-3 cells assessed as cell growth inhibition at 10 uM incubated for 24 hrs by sulforhodamine B assay; assay type: functional; conditions: read-out: GI
HT-29 = assay: Antiproliferative activity against human HT-29 cells assessed as cell growth inhibition at 10 uM incubated for 24 hrs by sulforhodamine B assay; assay type: functional; conditions: read-out: GI
MDA-MB-435 = assay: Antiproliferative activity against human MDA-MB-435 cells assessed as cell growth inhibition at 10 uM incubated for 24 hrs by sulforhodamine B assay; assay type: functional; conditions: read-out: GI
HCT-15 = assay: Antiproliferative activity against human HCT-15 cells assessed as cell growth inhibition at 10 uM incubated for 24 hrs by sulforhodamine B assay; assay type: functional; conditions: read-out: GI
NCI-H460 = assay: Antiproliferative activity against human NCI-H460 cells assessed as cell growth inhibition at 10 uM incubated for 24 hrs by sulforhodamine B assay; assay type: functional; conditions: read-out: GI
SW-620 = assay: Antiproliferative activity against human SW-620 cells assessed as cell growth inhibition at 10 uM incubated for 24 hrs by sulforhodamine B assay; assay type: functional; conditions: read-out: GI
BT-549 = assay: Antiproliferative activity against human BT-549 cells assessed as cell growth inhibition at 10 uM incubated for 24 hrs by sulforhodamine B assay; assay type: functional; conditions: read-out: GI
SK-MEL-28 = assay: Antiproliferative activity against human SK-MEL-28 cells assessed as cell growth inhibition at 10 uM incubated for 24 hrs by sulforhodamine B assay; assay type: functional; conditions: read-out: GI
M14 = assay: Antiproliferative activity against human M14 cells assessed as cell growth inhibition at 10 uM incubated for 24 hrs by sulforhodamine B assay; assay type: functional; conditions: read-out: GI
UACC-62 = assay: Antiproliferative activity against human UACC-62 cells assessed as cell growth inhibition at 10 uM incubated for 24 hrs by sulforhodamine B assay; assay type: functional; conditions: read-out: GI
SR = assay: Antiproliferative activity against human SR cells assessed as cell growth inhibition at 10 uM incubated for 24 hrs by sulforhodamine B assay; assay type: functional; conditions: read-out: GI

Which results are given for `Cc1ccc(-c2nc(SCC(=O)c3ccccc3)nc(Nc3ccc(S(N)(=O)=O)cc3)c2C#N)cc1`?
inhibition of growth at 10 µM (RPMI-8226): 34.6%; inhibition of growth at 10 µM (MDA-MB-231 [1]): 67%; inhibition of growth at 10 µM (U-251): 52.6%; inhibition of growth at 10 µM (SNB-19): 22.8%; inhibition of growth at 10 µM (RXF 393): 48.2%; inhibition of growth at 10 µM (HOP-62): 73.8%; inhibition of growth at 10 µM (DU-145): 39.3%; inhibition of growth at 10 µM (CAKI-1): 48.5%; inhibition of growth at 10 µM (OVCAR-8): 65.4%; inhibition of growth at 10 µM (ACHN): 10.3%; IC50 (MDA-MB-231 [2]): > 100 µM; inhibition of growth at 10 µM (SNB-75): 20%; inhibition of growth at 10 µM (A549): 12.6%; inhibition of growth at 10 µM (IGROV-1): 13.7%; inhibition of growth at 10 µM (KM12): 27.2%; inhibition of growth at 10 µM (PC-3): 7.4%; inhibition of growth at 10 µM (HT-29): 7.65%; inhibition of growth at 10 µM (MDA-MB-435): 53%; inhibition of growth at 10 µM (HCT-15): 27.9%; inhibition of growth at 10 µM (NCI-H460): 34.8%; inhibition of growth at 10 µM (SW-620): 16.2%; inhibition of growth at 10 µM (BT-549): 26.2%; inhibition of growth at 10 µM (SK-MEL-28): 18.9%; inhibition of growth at 10 µM (M14): 63.3%; inhibition of growth at 10 µM (UACC-62): 19.7%; inhibition of growth at 10 µM (SR): 43.1%
